“Also recorded” adds a separate entry of the source.
How the values were obtained:
15-LOX = target: T1, 15-LOX (Mus musculus, UniProt P39654); assay: 15-LOX inhibitor in mouse model of lymphedema; format: in vivo; conditions: in presence of 15-LOX inhibitor
T1 construct: from tissue; host or cells: living C57BL/6J mice (lymphedematous limb)
T1 sequence (P39654 1-663): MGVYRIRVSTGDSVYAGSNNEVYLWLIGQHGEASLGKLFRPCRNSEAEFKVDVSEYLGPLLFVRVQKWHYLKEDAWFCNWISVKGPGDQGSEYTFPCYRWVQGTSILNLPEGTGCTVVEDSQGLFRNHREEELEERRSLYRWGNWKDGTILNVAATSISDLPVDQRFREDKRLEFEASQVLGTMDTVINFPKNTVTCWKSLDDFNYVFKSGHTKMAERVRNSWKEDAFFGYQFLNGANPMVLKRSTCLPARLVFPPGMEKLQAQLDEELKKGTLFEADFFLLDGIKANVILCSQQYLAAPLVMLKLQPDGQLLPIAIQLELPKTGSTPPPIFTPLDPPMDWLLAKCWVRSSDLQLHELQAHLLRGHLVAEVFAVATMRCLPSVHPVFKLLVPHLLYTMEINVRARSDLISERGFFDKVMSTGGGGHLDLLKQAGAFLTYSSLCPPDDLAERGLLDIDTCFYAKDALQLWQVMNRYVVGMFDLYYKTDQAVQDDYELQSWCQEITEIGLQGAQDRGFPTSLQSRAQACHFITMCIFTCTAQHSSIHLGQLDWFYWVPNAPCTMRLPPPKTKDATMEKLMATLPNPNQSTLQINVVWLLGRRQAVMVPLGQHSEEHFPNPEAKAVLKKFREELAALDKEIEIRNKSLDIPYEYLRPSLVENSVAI
Experimental: Mice were housed in individually ventilated cages in a temperature and light regulated room in a SPF facility and received food and water ad libitum. Female C57BL/6J (6 weeks old) were obtained from Janvier (Le Genest Saint Isle, France). Mouse model of lymphedema was performed as previously described (Morfoisse ATVB 2008).
To understand the molecular mechanisms underlying the inflammatory process in lymphedema, we performed a time course analysis of the adipose tissue in a mouse model of lymphedema (not shown). […] In early stages of LD (2 weeks post surgery), no significant difference in lipid content was observed (data not shown). In contrast, in acquired lymphedema (8 weeks post-surgery), we found similar pattern as those observed in human tissue samples (data not shown). In particular, we observed a decrease in AA-derived lipid mediators generated by 15-LOX (15-HETE) whereas no difference was found in lipids generated by DHA metabolism (17-HDOHE) (data not shown). After eight weeks of LD, we observed that changes in pro-resolvin content was associated with a decrease in 15-LOX mRNA and protein expression (data not shown). Importantly, the downregulation of 15-LOX was also observed in the lymphatic endothelium (data not shown).
To evaluate the role of 15-LOX in LD, we used the PD146176 pharmacological inhibitor. […] As we previously shown that Tcell populations were recruited during LD development, we next performed flow cytometry analysis. We observed in the presence of 15-LOX inhibitor an increase in CD4+ Tcells during LD associated with a decrease in Treg recruitment (data not shown). This was confirmed by a decrease of Tregs (Foxp3 positive cells) immunodetection in lymphedematous tissues (data not shown).

lymphatic monolayer = conditions: literature reference 17; cited from earlier work
[1] = system: LEC (lymphatic endothelium); assay: effect of 15-HETE on the cultured LEC; format: cell-based
Text: To decipher the role of 15-Lox lipid derived mediators, we studied the effect of 15-HETE on the cultured LEC. We identified a direct effect of 15 HETE on the lymphatic endothelium. It promoted Tcells adhesion to the lymphatic monolayer (data not shown), had no effect on LEC proliferation (data not shown), but stimulated their migration (data not shown).

Structure (SMILES): c1ccc2c(c1)SCc1c-2[nH]c2ccccc12 [PD146176]
- CD4+ Tcells during LD (15-LOX; flow cytometry): increase
- Treg recruitment (15-LOX; flow cytometry): decrease
- Tregs (Foxp3 positive cells) immunodetection in lymphedematous tissues (15-LOX): decrease
- LD swelling (15-LOX; mouse model of lymphedema): increased
- dermal backflow (15-LOX; mouse model of lymphedema): strong dermal backflow
- dermal fibrosis (15-LOX; mouse model of lymphedema): associated with dermal fibrosis

Structure (SMILES): CCCCC/C=C\C[C@H](O)/C=C/C=C\C/C=C\CCCC(=O)O [12-HETE]
- effect on the lymphatic monolayer (lymphatic monolayer): generates holes in the lymphatic monolayer

Structure (SMILES): CCCCC[C@H](O)/C=C/C=C\C/C=C\C/C=C\CCCC(=O)O [15-HETE, 15-hydroxyeicosatetraenoic acid]
- deleterious effect / damages on the lymphatic endothelium ([1]; compared to 12-HETE): no deleterious effect; also recorded: did not cause lymphatic damages
- LEC proliferation ([1]; cultured LEC): no effect
